Laboratory results as given in patent EP1247803A2, “Indolinone compounds suitable for modulation of protein kinases” (Sugen, Inc., priority 1996, dated 1998).

Tests used:
[1] = target: T1, FLK-1 receptor (Mus musculus, UniProt P35918); experiment: FLK-1 ELISA (kinase activity of the FLK-1 receptor in FLK-1/NIH3T3 cells, VEGF stimulated); assay type: cell-based
T1 construct: expressed in transfected cells; host or cells: NIH3T3 C7#3
Procedure, shortened: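 FLK-1-expressing NIH3T3 C7#3 cells, starved overnight in 0.1% FBS medium, were treated with compounds at a 1:200 final dilution (0.5% DMSO) for 2 h at 37 °C, with VEGF stimulation. FLK-1 kinase activity was read by ELISA on anti-rabbit IgG plates using affinity-purified anti-FLK-1 antiserum.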

[2] = target: PDGF-R (Homo sapiens, UniProt P09619); experiment: PDGF-R ELISA; assay type: cell-based
PDGF-R, sequence (P09619 33-1106, species assumed): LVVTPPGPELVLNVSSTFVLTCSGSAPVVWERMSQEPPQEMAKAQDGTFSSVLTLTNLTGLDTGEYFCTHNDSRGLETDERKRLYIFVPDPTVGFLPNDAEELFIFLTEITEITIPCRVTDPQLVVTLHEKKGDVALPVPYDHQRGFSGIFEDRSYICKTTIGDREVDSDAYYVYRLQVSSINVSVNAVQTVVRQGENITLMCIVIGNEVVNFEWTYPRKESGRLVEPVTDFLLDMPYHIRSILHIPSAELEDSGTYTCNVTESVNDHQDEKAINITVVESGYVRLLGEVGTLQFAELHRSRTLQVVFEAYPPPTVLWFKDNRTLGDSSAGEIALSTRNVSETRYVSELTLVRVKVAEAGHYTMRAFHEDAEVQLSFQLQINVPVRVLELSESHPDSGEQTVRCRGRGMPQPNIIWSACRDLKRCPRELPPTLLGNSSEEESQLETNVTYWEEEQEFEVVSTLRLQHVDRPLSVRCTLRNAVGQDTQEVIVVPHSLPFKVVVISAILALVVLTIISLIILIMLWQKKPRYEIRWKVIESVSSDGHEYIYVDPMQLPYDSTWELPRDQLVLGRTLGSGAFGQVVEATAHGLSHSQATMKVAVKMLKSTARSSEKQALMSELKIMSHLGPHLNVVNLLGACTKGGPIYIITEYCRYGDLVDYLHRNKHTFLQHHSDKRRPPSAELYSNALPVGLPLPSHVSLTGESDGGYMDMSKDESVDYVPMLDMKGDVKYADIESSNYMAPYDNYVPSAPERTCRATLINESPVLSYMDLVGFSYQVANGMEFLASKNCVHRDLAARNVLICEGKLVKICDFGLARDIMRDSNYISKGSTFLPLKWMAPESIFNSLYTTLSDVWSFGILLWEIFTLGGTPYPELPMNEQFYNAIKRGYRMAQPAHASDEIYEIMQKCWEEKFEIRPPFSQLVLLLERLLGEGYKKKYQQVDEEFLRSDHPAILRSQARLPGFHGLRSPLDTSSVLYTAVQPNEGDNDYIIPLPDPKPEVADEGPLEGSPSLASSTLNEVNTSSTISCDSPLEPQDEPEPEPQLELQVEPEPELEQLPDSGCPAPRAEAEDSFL
Description: A PDGF-R ELISA is described in International Patent Publication No. WO 96/40116, published December 19, 1996 by Tang et al.

T1 sequence (P35918 20-1345): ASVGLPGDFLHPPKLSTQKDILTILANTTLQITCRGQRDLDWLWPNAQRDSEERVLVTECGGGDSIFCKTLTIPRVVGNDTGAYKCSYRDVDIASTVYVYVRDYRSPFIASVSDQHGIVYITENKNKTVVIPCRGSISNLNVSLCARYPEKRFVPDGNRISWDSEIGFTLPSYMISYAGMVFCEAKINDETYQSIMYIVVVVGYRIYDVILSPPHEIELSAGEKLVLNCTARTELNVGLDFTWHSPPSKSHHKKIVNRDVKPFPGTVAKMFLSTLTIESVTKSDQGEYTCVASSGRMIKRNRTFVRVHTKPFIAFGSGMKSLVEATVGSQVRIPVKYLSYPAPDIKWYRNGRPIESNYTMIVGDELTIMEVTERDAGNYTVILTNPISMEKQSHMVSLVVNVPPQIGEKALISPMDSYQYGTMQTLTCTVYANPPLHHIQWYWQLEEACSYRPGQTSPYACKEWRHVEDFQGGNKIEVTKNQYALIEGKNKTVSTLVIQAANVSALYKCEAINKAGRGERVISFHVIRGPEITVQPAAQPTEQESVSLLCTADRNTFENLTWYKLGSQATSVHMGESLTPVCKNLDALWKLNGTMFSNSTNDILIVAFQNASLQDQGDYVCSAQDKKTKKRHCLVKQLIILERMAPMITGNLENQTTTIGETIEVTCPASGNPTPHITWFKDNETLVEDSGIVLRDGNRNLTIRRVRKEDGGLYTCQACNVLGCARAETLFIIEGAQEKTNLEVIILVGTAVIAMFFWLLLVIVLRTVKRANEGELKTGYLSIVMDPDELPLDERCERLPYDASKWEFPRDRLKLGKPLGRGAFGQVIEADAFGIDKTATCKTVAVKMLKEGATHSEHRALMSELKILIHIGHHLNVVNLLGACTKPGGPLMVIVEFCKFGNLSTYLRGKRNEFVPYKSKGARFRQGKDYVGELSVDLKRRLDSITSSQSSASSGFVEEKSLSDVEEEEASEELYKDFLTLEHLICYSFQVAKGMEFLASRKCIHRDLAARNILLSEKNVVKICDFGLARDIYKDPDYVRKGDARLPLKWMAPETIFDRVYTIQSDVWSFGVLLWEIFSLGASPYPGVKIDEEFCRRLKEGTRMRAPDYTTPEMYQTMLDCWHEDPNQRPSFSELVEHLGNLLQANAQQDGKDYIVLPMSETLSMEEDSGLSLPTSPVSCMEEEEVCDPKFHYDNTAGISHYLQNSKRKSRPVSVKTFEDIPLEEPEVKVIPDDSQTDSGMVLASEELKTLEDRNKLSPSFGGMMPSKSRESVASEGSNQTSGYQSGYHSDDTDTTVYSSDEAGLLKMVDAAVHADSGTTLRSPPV

Row | SMILES | Fik Kinase %Inhibition [1] | PDGF Kinase %Inhibition [2]
1 | CCN(CC)c1ccc(C=C2C(=O)Nc3ccc(CCCl)cc32)c(O)c1 [10734/G05] | 7.4% | 2.9%
2 | CCN(CC)c1ccc(C=C2C(=O)Nc3ccc(S(=O)(=O)N4CCOCC4)cc32)c(O)c1 [10734/F05] | 9.8% | -1.1%
3 | O=C1Nc2ccc(CCCl)cc2C1=Cc1cc(Br)cc(Br)c1O [10734/G07] | 21.9% | -25.0%
4 | O=C1Nc2ccc(S(=O)(=O)Nc3ccc(C(F)(F)F)cc3)cc2C1=Cc1ccc(Br)s1 [10734/E11] | 19.2% | 16.1%
5 | O=C1Nc2ccc(CCCl)cc2C1=Cc1ccc(Br)s1 [10734/G11] | 8.7% | -25.4%
6 | O=C1Nc2ccc(CCCl)cc2C1=Cc1cc(Cl)ccc1O [10734/G04] | -1.1% | 16.1%
7 | O=C1Nc2ccc(S(=O)(=O)Nc3ccc(C(F)(F)F)cc3)cc2C1=Cc1cc(Br)cc(Br)c1O [10734/E07] | 27.9% | 8.2%
8 | O=C1Nc2ccc(S(=O)(=O)N3CCOCC3)cc2C1=Cc1cc(Cl)ccc1O [10734/F04] | -2.6% | 25.0%
9 | O=C1Nc2ccc(S(=O)(=O)N3CCOCC3)cc2C1=Cc1cc(Cl)cc(Cl)c1O [10734/F03] | 4.2% | -24.1%
10 | CC(C)(C)c1ccc(C=C2C(=O)Nc3ccc(S(=O)(=O)Nc4ccc(C(F)(F)F)cc4)cc32)cc1 [10734/E10] | 18.5% | 29.8%
11 | CC(C)(C)c1ccc(C=C2C(=O)Nc3ccc(CCCl)cc32)cc1 [10734/G10] | 10.8% | 9.9%
12 | O=C1Nc2ccc(S(=O)(=O)N3CCOCC3)cc2C1=Cc1ccc([N+](=O)[O-])cc1 [10734/F06] | 11.0% | -21.4%
13 | O=C1Nc2ccc(S(=O)(=O)Nc3ccc(C(F)(F)F)cc3)cc2C1=Cc1ccc(O)c(Br)c1 [10734/E09] | 8.0% | 1.1%
14 | O=C1Nc2ccc(CCCl)cc2C1=Cc1ccc([N+](=O)[O-])cc1 [10734/G06] | 16.5% | -18.8%
15 | O=C1Nc2ccc(CCCl)cc2C1=Cc1cc(Cl)cc(Cl)c1O [10734/G03] | 18.7% | -3.8%
16 | O=C1Nc2ccc(S(=O)(=O)Nc3ccc(C(F)(F)F)cc3)cc2C1=Cc1ccc([N+](=O)[O-])cc1 [10734/E06] | 28.4% | 13.5%
17 | O=C1Nc2ccc(S(=O)(=O)N3CCOCC3)cc2C1=Cc1cccc(F)c1O [10734/F08] | 4.8% | -6.0%
18 | O=C1Nc2ccc(S(=O)(=O)Nc3ccc(C(F)(F)F)cc3)cc2C1=Cc1cc(Cl)ccc1O [10734/E04] | 10.7% | 26.7%
19 | O=C1Nc2ccc(S(=O)(=O)Nc3ccc(C(F)(F)F)cc3)cc2C1=Cc1cccc(F)c1O [10734/E08] | 26.6% | 13.0%
20 | CC(C)(C)c1ccc(C=C2C(=O)Nc3ccc(S(=O)(=O)N4CCOCC4)cc32)cc1 [10734/F10] | 14.8% | 25.8%
21 | O=C1Nc2ccc(CCCl)cc2C1=Cc1ccc(O)c(Br)c1 [10734/G09] | 8.5% | -7.7%
